From PubChem BioAssay (NCI)
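Cells were grown in 96-well plates and exposed to each compound for 48 hours at five concentrations; endpoints were interpolated linearly between bracketing concentrations, or set to the highest concentration if not reached. Definition used: TGI = concentration required for complete inhibition of growth.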

Tests used:
Test in all cases: NCI anticancer screen, dose series, 48 h
[1] = test system: 786-0 renal
[2] = test system: A498 renal
[3] = test system: A549 NSCLC
[4] = test system: ACHN renal
[5] = test system: CAKI-1 renal
[6] = test system: CCRF-CEM leukemia
[7] = test system: COLO 205 colon
[8] = test system: DLD-1 colon
[9] = test system: DMS 114 small cell lung
[10] = test system: EKVX NSCLC
[11] = test system: HCC-2998 colon
[12] = test system: HOP-62 NSCLC
[13] = test system: HT29 colon
[14] = test system: IGROV1 ovarian
[15] = test system: K-562 leukemia
[16] = test system: KM12 colon
[17] = test system: KM20L2 colon
[18] = test system: LXFL 529 NSCLC
[19] = test system: M14 melanoma
[20] = test system: M19-MEL melanoma
[21] = test system: MALME-3M melanoma
[22] = test system: MOLT-4 leukemia
[23] = test system: NCI-H23 lung
[24] = test system: NCI-H460 lung
[25] = test system: NCI-H522 lung
[26] = test system: OVCAR-3 ovarian
[27] = test system: OVCAR-4 ovarian
[28] = test system: OVCAR-5 ovarian
[29] = test system: OVCAR-8 ovarian
[30] = test system: RPMI-8226 leukemia
[31] = test system: SF-268 CNS
[32] = test system: SF-295 CNS
[33] = test system: SK-MEL-2 melanoma
[34] = test system: SK-MEL-28 melanoma
[35] = test system: SK-MEL-5 melanoma
[36] = test system: SK-OV-3 ovarian
[37] = test system: SN12C renal
[38] = test system: SNB-75 CNS
[39] = test system: SNB-78 CNS
[40] = test system: SW-620 colon
[41] = test system: TK-10 renal
[42] = test system: U251 CNS
[43] = test system: UACC-257 melanoma
[44] = test system: UACC-62 melanoma
[45] = test system: UO-31 renal
[46] = test system: XF 498 CNS
[47] = test system: DMS 273 small cell lung
[48] = test system: HCT-116 colon
[49] = test system: HCT-15 colon
[50] = test system: HL-60(TB) leukemia
[51] = test system: HOP-92 NSCLC
[52] = test system: LOX IMVI melanoma
[53] = test system: NCI-H226 lung
[54] = test system: RXF 393 renal
[55] = test system: SF-539 CNS
[56] = test system: SNB-19 CNS
[57] = test system: SR leukemia
[58] = test system: HOP-18 NSCLC

COc1cc2cccc(N=Cc3cccc(OC)c3OC(C)C)c2cc1OC
TGI [1]: 37.8 µM
TGI [2]: > 100 µM
TGI [3]: 86.5 µM
TGI [4]: > 100 µM
TGI [5]: 42.9 µM
TGI [6]: > 100 µM
TGI [7]: > 100 µM
TGI [8]: 70 µM
TGI [9]: 38.7 µM
TGI [10]: > 100 µM
TGI [11]: > 100 µM
TGI [12]: 80.3 µM
TGI [13]: 50.2 µM
TGI [14]: 70.2 µM
TGI [15]: 89 µM
TGI [16]: 57.2 µM
TGI [17]: > 100 µM
TGI [18]: 31.1 µM
TGI [19]: 35.9 µM
TGI [20]: 48.2 µM
TGI [21]: 59.8 µM
TGI [22]: 69.5 µM
TGI [23]: 57.2 µM
TGI [24]: > 100 µM
TGI [25]: 39.7 µM
TGI [26]: 41 µM
TGI [27]: 52.4 µM
TGI [28]: > 100 µM
TGI [29]: 53.1 µM
TGI [30]: 37.7 µM
TGI [31]: 91.4 µM
TGI [32]: 41.2 µM
TGI [33]: 48.6 µM
TGI [34]: 66.9 µM
TGI [35]: 53.9 µM
TGI [36]: 73 µM
TGI [37]: > 100 µM
TGI [38]: 49 µM
TGI [39]: > 100 µM
TGI [40]: 48.8 µM
TGI [41]: 59 µM
TGI [42]: 49.9 µM
TGI [43]: 52.4 µM
TGI [44]: 45.6 µM
TGI [45]: > 100 µM
TGI [46]: 55.4 µM

Cc1cc(C)[n+](CCOc2ccc(/C(=C(/Cl)c3ccccc3)c3ccccc3)cc2)c(C)c1
TGI [1]: 8.35 µM
TGI [2]: 30.2 µM
TGI [3]: 17.4 µM
TGI [4]: 31.4 µM
TGI [5]: 20.3 µM
TGI [6]: 3.28 µM
TGI [7]: 0.961 µM
TGI [8]: 15.8 µM
TGI [9]: 5.43 µM
TGI [47]: 1.48 µM
TGI [10]: 13.2 µM
TGI [11]: 2.46 µM
TGI [48]: 7.98 µM
TGI [49]: 27.5 µM
TGI [50]: 3.31 µM
TGI [12]: 9.06 µM
TGI [51]: 2.7 µM
TGI [13]: 3.48 µM
TGI [14]: 2.33 µM
TGI [15]: 8.11 µM
TGI [16]: 2.01 µM
TGI [17]: 12.7 µM
TGI [52]: 2.14 µM
TGI [18]: 1.82 µM
TGI [19]: 6.88 µM
TGI [20]: 1.84 µM
TGI [21]: 3.64 µM
TGI [22]: 11.3 µM
TGI [53]: 6.37 µM
TGI [23]: 6.94 µM
TGI [24]: 8.18 µM
TGI [25]: 2.62 µM
TGI [26]: 4.07 µM
TGI [27]: 13.5 µM
TGI [28]: 12.4 µM
TGI [29]: 8.41 µM
TGI [30]: 3.59 µM
TGI [54]: 7.77 µM
TGI [31]: 7.55 µM
TGI [32]: 11.2 µM
TGI [55]: 9.82 µM
TGI [33]: 2.18 µM
TGI [34]: 3.58 µM
TGI [35]: 1.64 µM
TGI [36]: 6.54 µM
TGI [37]: 6.03 µM
TGI [56]: 5.21 µM
TGI [38]: 4.3 µM
TGI [39]: 19.5 µM
TGI [57]: 4.32 µM
TGI [40]: 11.1 µM
TGI [41]: 13.1 µM
TGI [42]: 4.14 µM
TGI [43]: 3.28 µM
TGI [44]: 4.92 µM
TGI [45]: 35.7 µM
TGI [46]: 1.29 µM

CC(C)(C=O)CC(C#N)/C(=N\NC(N)=O)C(=O)Nc1ccccc1C(N)=O (stereo not given)
TGI [1]: > 100 µM
TGI [2]: > 100 µM
TGI [3]: > 100 µM
TGI [4]: > 100 µM
TGI [5]: > 100 µM
TGI [6]: > 100 µM
TGI [10]: > 100 µM
TGI [11]: > 100 µM
TGI [48]: > 100 µM
TGI [49]: > 100 µM
TGI [50]: > 100 µM
TGI [12]: > 100 µM
TGI [51]: > 100 µM
TGI [13]: > 100 µM
TGI [14]: > 100 µM
TGI [15]: > 100 µM
TGI [16]: > 100 µM
TGI [17]: > 100 µM
TGI [52]: > 100 µM
TGI [18]: > 100 µM
TGI [19]: > 100 µM
TGI [20]: > 100 µM
TGI [21]: > 100 µM
TGI [22]: > 100 µM
TGI [53]: > 100 µM
TGI [23]: > 100 µM
TGI [24]: > 100 µM
TGI [25]: > 100 µM
TGI [26]: > 100 µM
TGI [27]: > 100 µM
TGI [28]: > 100 µM
TGI [29]: > 100 µM
TGI [30]: > 100 µM
TGI [31]: > 100 µM
TGI [32]: > 100 µM
TGI [55]: > 100 µM
TGI [33]: > 100 µM
TGI [34]: > 100 µM
TGI [35]: > 100 µM
TGI [36]: > 100 µM
TGI [37]: > 100 µM
TGI [56]: > 100 µM
TGI [39]: > 100 µM
TGI [57]: > 100 µM
TGI [40]: > 100 µM
TGI [41]: > 100 µM
TGI [42]: > 100 µM
TGI [43]: > 100 µM
TGI [44]: > 100 µM
TGI [45]: > 100 µM
TGI [46]: > 100 µM

COC(=O)N/N=C(\C)C(CN1CCCCC1)C(C1=C(O)c2ccccc2OC1)c1ccccc1 (stereo not given)
TGI [1]: > 100 µM
TGI [2]: > 100 µM
TGI [3]: > 100 µM
TGI [4]: > 100 µM
TGI [5]: > 100 µM
TGI [6]: > 100 µM
TGI [7]: > 100 µM
TGI [8]: > 100 µM
TGI [9]: > 100 µM
TGI [47]: > 100 µM
TGI [10]: > 100 µM
TGI [48]: > 100 µM
TGI [49]: > 100 µM
TGI [50]: > 100 µM
TGI [58]: > 100 µM
TGI [12]: > 100 µM
TGI [13]: > 100 µM
TGI [14]: > 100 µM
TGI [15]: > 100 µM
TGI [16]: > 100 µM
TGI [17]: > 100 µM
TGI [52]: > 100 µM
TGI [18]: > 100 µM
TGI [19]: > 100 µM
TGI [20]: > 100 µM
TGI [21]: > 100 µM
TGI [22]: > 100 µM
TGI [53]: > 100 µM
TGI [23]: > 100 µM
TGI [24]: > 100 µM
TGI [25]: > 100 µM
TGI [26]: > 100 µM
TGI [27]: > 100 µM
TGI [28]: > 100 µM
TGI [29]: > 100 µM
TGI [30]: > 100 µM
TGI [54]: > 100 µM
TGI [31]: > 100 µM
TGI [32]: > 100 µM
TGI [55]: > 100 µM
TGI [33]: > 100 µM
TGI [34]: > 100 µM
TGI [35]: > 100 µM
TGI [36]: > 100 µM
TGI [37]: > 100 µM
TGI [56]: > 100 µM
TGI [38]: > 100 µM
TGI [39]: > 100 µM
TGI [57]: > 100 µM
TGI [40]: > 100 µM
TGI [41]: > 100 µM
TGI [42]: > 100 µM
TGI [43]: > 100 µM
TGI [44]: > 100 µM
TGI [45]: > 100 µM
TGI [46]: > 100 µM
